Results published in patent publication US20110124626A1, “BENZAZEPINE DERIVATIVES AND THEIR USE AS HISTAMINE H3 ANTAGONISTS” (TAKEDA PHARMACEUTICAL COMPANY LIMITED, priority 2008, published 2011).

What was measured:
human H3 receptor [1] = molecular target: T1, human H3 receptor (Homo sapiens, UniProt Q9Y5N1); assay: In vitro H3 functional assay (cAMP response element driven luciferase reporter); assay type: cell-based; details: CHO(dhfr+)-cre-luc cells expressing human H3 receptor; RαMH 10 nM, forskolin 1 μM; read-out: hH3 functional IC50
T1 construct: expressed in transfected cells
T1 sequence (Q9Y5N1 whole entry): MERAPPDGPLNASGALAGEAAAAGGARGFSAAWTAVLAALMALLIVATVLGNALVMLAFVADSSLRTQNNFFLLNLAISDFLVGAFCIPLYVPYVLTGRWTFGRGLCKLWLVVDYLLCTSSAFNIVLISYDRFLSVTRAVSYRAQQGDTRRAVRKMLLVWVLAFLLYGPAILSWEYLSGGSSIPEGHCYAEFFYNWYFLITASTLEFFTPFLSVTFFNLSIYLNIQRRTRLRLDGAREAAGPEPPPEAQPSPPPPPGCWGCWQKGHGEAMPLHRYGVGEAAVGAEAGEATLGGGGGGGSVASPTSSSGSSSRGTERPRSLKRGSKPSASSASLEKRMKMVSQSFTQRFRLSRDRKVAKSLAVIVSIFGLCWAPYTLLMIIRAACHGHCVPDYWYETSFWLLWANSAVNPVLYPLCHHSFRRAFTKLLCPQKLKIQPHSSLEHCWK
Protocol: The functional activity of compounds at the H3 receptor was determined by measuring changes in the level of intracellular cAMP using a cAMP response element driven luciferase reporter assay. The changes in luciferase expression were monitored by a luminescence plate reader, Analyst HT (MDS Analytical). Increases in intracellular cAMP were readily detected upon activation of protein kinase A by forskolin (Sigma) and suppression of this response observed with the application of the H3 receptor agonist RαMH (Sigma).
CHO(dhfr^+)-cre-luc cells stably expressing human H3 receptor were routinely grown as monolayers in Minimal Essential Medium α (MEMα) (Invitrogen) supplemented with 10% dialysed FBS (Hyclone), in 5% CO2 at 37° C. 48 hours prior to assay, cells were seeded in clear-base white walled 384-well plates (Corning) at a density of 5000 cells/well. On the day of assay, growth media was removed and replaced with […] of assay buffer (MEMα, 5 mg/ml fatty acid free BSA (Sigma)) per well. Cells were then incubated for 30 minutes at 37° C., 5% CO2. Compound was serially diluted in DMSO before being diluted 1:10 with assay buffer. 2.5 of compound diluted in assay buffer was added and cells incubated for 5 minutes at 37° C., 5% CO2. 2.5 μl of each reagent was then added in the following order: RαMH (10 nM), isobutylmethylxanthine (1-methyl-3-(2-methylpropyl)-7H-purine-2,6-dione; IBMX) (500 μM) (Sigma) and forskolin (1 μM). Cells were then incubated for 90 minutes at 37° C., 5% CO2, followed by 30 minutes at room temperature. At the end of incubation 25 μl of Steadylite reagent (Perkin Elmer) was added, plates were sealed and placed on a shaker for 5 minutes. The level of light output to determine the level of luciferase expression was then measured.
IC50 values for compounds were determined from ten point half log scale dose-response studies and represent the concentration of compound required to […] 50% inhibition of forskolin stimulated cells in the presence of RαMH alone. Curves were generated using the average of duplicate wells for each data point and analyzed using nonlinear regression of four parameter dose response.

human H3 receptor [2] = molecular target: T1, human H3 receptor; assay: In vitro H3 binding assay (3H-N-α-methyl-histamine competition binding); details: membranes of CHO-K1 cells expressing human H3 receptor; 2 nM 3H-NαMH; read-out: hH3 binding IC50
Procedure, shortened: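 Membranes from CHO-K1 cells stably expressing human H3 (5 μg/well) incubated 1 h at room temperature with compound and 2 nM ³H-NαMH in 50 mM Tris-HCl pH 7.4, 5 mM MgCl2; non-specific binding defined with 1 μM RαMH. Bound radioactivity measured by filtration and scintillation; IC50 from seven-point curves by variable-slope sigmoidal regression.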

IC50 (human H3 receptor [1]) [nM] | IC50 (human H3 receptor [2]) [nM] | Structure (SMILES)
3 | 6 | Cn1c(CNC(=O)c2ccc3c(c2)CCN(C2CCC2)CC3)nc2ccccc21 [Example 79, 3-Cyclobutyl-N-((1-methyl-1H-benzo[d]imidazol-2-yl)methyl)-2,3,4,5-tetrahydro-1H-benzo[d]azepine-7-carboxamide]
34 | 61 | O=C1CCCN1Cc1ccc2c(c1)CCN(C1CCC1)CC2 [Example 304, 1-((3-cyclobutyl-2,3,4,5-tetrahydro-1H-benzo[d]azepin-7-yl)methyl)pyrrolidin-2-one]
5 | 26 | O=C(NCC1CCCCC1)c1ccc2c(c1)CCN(C1CCC1)CC2 [Example 34, 3-Cyclobutyl-N-(cyclohexylmethyl)-2,3,4,5-tetrahydro-1H-benzo[d]azepine-7-carboxamide]
15 | 23 | CCNC(=O)C1CCC(O)(Cc2ccc3c(c2)CCN(C2CCC2)CC3)CC1 (centres unmarked) [Example 231, 4-((3-cyclobutyl-2,3,4,5-tetrahydro-1H-benzo[d]azepin-7-yl)methyl)-N-ethyl-4-hydroxycyclohexanecarboxamide]
31 | 22 | O=C(NCC1CCNCC1)c1ccc2c(c1)CCN(C1CCC1)CC2 [Example 5, 3-Cyclobutyl-N-(piperidin-4-ylmethyl)-2,3,4,5-tetrahydro-1H-benzo[d]azepine-7-carboxamide]
0.5 | 2 | O=C(NCc1cccc(-c2nccs2)c1)c1ccc2c(c1)CCN(C1CCC1)CC2 [Example 69, 3-Cyclobutyl-N-(3-(thiazol-2-yl)benzyl)-2,3,4,5-tetrahydro-1H-benzo[d]azepine-7-carboxamide]
7 | 7 | Cn1cccc1CNC(=O)c1ccc2c(c1)CCN(C1CCC1)CC2 [Example 111, 3-Cyclobutyl-N-((1-methyl-1H-pyrrol-2-yl)methyl)-2,3,4,5-tetrahydro-1H-benzo[d]azepine-7-carboxamide]
3 | 1 | O=C(NCc1cccc(-n2cncn2)c1)c1ccc2c(c1)CCN(C1CCC1)CC2 [Example 68, N-(3-(1H-1,2,4-Triazol-1-yl)benzyl)-3-cyclobutyl-2,3,4,5-tetrahydro-1H-benzo[d]azepine-7-carboxamide]
3 | 11 | O=C(NCc1cccnc1)c1ccc2c(c1)CCN(C1CCCC1)CC2 [Example 20, 3-Cyclopentyl-N-(pyridin-3-ylmethyl)-2,3,4,5-tetrahydro-1H-benzo[d]azepine-7-carboxamide]
5 | 10 | CC(=O)N1CCCC(CNC(=O)c2ccc3c(c2)CCN(C2CCC2)CC3)C1 (centres unmarked) [Example 164, N-((1-acetylpiperidin-3-yl)methyl)-3-cyclobutyl-2,3,4,5-tetrahydro-1H-benzo[d]azepine-7-carboxamide]
